Results taken from patent US8772504B2, “Substituted benzoxazole, benzimidazole, oxazolopyridine and imidazopyridine derivatives as gamma secretase modulators” (Janssen Pharmaceuticals, Inc., priority 2009, dated 2014).

Experiments:
Aβ42 [1] = test: In vivo efficacy Method 1: brain soluble Aβ42 by ELISA; set-up: species or system mouse; details: Table 4a, single oral dose, overnight fasted animals, sacrificed after 4 h, soluble fraction of brain homogenates
Source text: (§1) To determine whether acute administration of an Aβ42 lowering agent would reduce Aβ42 levels in vivo, non-transgenic rodents, e.g. mice or rats were used. Alternatively, two to three month old Tg2576 mice expressing APP695 containing the “Swedish” variant can be used or a transgenic mouse model developed by Dr. Fred Van Leuven (K.U. Leuven, Belgium) and co-workers, with neuron-specific expression of a clinical mutant of the human amyloid precursor protein [V717I] […] Young transgenic mice have high levels of Aβ in the brain but no detectable Aβ deposition. At approximately 6-8 months of age, the transgenic mice start to display spontaneous, progressive accumulation of β-amyloid (Aβ) in the brain, eventually resulting in amyloid plaques within the subiculum, hippocampus and cortex. Animals treated with the Aβ42 lowering agent were examined and compared to those untreated or treated with vehicle and brain levels of soluble Aβ42 and total Aβ would be quantitated by standard techniques, for example, using ELISA.
(§2) A typical protocol for measuring Aβ42 lowering in vivo is shown but it is only one of many variations that could be used to optimize the levels of detectable Aβ. For example, Aβ42 lowering compounds were formulated in 20% of Captisol® (a sulfobutyl ether of β-cyclodextrin) in water or 20% hydroxypropyl β cyclodextrin. The Aβ42 lowering agents were administered as a single oral dose or by any acceptable route of administration to overnight fasted animals. After 4 h, the animals were sacrificed and Aβ42 levels were analysed.
(§3) Blood was collected by decapitation and exsanguinations in EDTA-treated collection tubes. Blood was centrifuged at 1900 g for 10 minutes (min) at 4° C. and the plasma recovered and flash frozen for later analysis. The brain was removed from the cranium and hindbrain. The cerebellum was removed and the left and right hemisphere were separated. The left hemisphere was stored at −18° C. for quantitative analysis of test compound levels. The right hemisphere was rinsed with phosphate-buffered saline (PBS) buffer and immediately frozen on dry ice and stored at −80° C. until homogenization for biochemical assays.
(§4) All samples were sonicated for 30 seconds on ice at 20% power output (pulse mode). Homogenates were centrifuged at 221.300×g for 50 min. The resulting high speed supernatants were then transferred to fresh tubes and were optionally further purified before the next step. A portion of the supernatant was neutralized with 10% 0.5 M Tris-HCl and this was used to quantify Aβtotal.
(§5) The obtained supernatants were purified with Water Oasis HLB reverse phase columns (Waters Corp., Milford, Mass.) to remove non-specific immunoreactive material from the brain lysates prior subsequent Aβ detection. Using a vacuum manifold, all solutions were passed through the columns at a rate of approximately 1 ml per min, so the vacuum pressure was adjusted accordingly throughout the procedure. Columns were preconditioned with 1 ml of 100% MeOH, before equilibration with 1 ml of H2O, Non-neutralized brain lysates were loaded onto the columns. The loaded samples were then washed twice with the first wash performed with 1 ml of 5% MeOH, and the second wash with 1 ml of 30% MeOH. Finally, the Aβ was eluted from the columns and into 100×30 mm glass tubes, with a solution of 90% MeOH with 2% NH4OH. The eluate was then transferred into 1.5 ml tubes and concentrated in a speed-vac concentrator on high heat for about 1.5-2 h at 70° C. The concentrated Aβ was then resuspended in UltraCULTURE General Purpose Serum-Free Medium (Cambrex Corp., Walkersville, Md.) plus Protease Inhibitors added.
To quantify the amount of Aβ42 in the soluble fraction of the brain homogenates, commercially available Enzyme-Linked-Immunosorbent-Assay (ELISA) kits were used (e.g. Innotest® β-Amyloid(1-42), Innogenetics N.V., Ghent, Belgium). The Aβ42 ELISA was performed using the plate provided with the kit only.

Aβ42 [2] = test: Screening for γ-secretase-modulating activity, Method 1: Aβ42 sandwich ELISA on SKNBE2 cell media; format: cell-based; details: SKNBE2 cells carrying APP 695 wild type
Summary of the method: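 SKNBE2 cells expressing wild-type APP695 were treated with compound for 18 h in Ultraculture/1% glutamine. Secreted Aβ42 was quantified by sandwich ELISA (C-terminal capture, biotinylated 3D6, TMB, 450 nm), with WST-1 used as a toxicity check. IC50 was derived from 4-parameter fits of % inhibition or % of untreated control.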

Aβtotal [3] = test: In vivo efficacy Method 1: brain soluble Aβtotal by ELISA; set-up: species or system mouse; details: Table 4a, single oral dose, overnight fasted animals, sacrificed after 4 h, soluble fraction of brain homogenates
Source text: as §1, §2, §3, §4
as §5, with “added. […]” for “added.”

Aβtotal [4] = test: Screening for γ-secretase-modulating activity, Method 1: Aβtotal sandwich ELISA on SKNBE2 cell media; format: cell-based; details: SKNBE2 cells carrying APP 695 wild type
Summary of the method: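 SKNBE2 cells expressing wild-type APP 695 were treated with compound for 18 hours. Aβtotal in the medium was measured by sandwich ELISA (6E10 capture, biotinylated 4G8 detection, fluorogenic peroxidase read-out). IC50 came from a 4-parameter fit of % inhibition with top/bottom fixed at 100/0 and Hill slope 1, or as averaged IC50 from % of untreated control.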

Aβ42 [5] = test: Screening for γ-secretase-modulating activity, Method 2: Aβ42 Alphalisa on SKNBE2 cell supernatant; format: cell-based; details: Method 2, Table 3c, SKNBE2 cells carrying APP 695 wild type, overnight incubation
Summary of the method: (§6)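 SKNBE2 cells expressing wild-type APP695, plated at 10^4 cells/well with compound at several concentrations and incubated overnight at 37° C. Aβ42 (C-terminal capture, N-terminal biotinylated detection) and Aβtotal (N-terminal/4G8 pair) measured in supernatant by AlphaLISA. IC50 from 4-parameter fit of percent of compound-free control.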

Aβtotal [6] = test: Screening for γ-secretase-modulating activity, Method 2: Aβtotal Alphalisa on SKNBE2 cell supernatant; format: cell-based; details: Method 2, Table 3c, SKNBE2 cells carrying APP 695 wild type, overnight incubation
Summary of the method: as §6

[7] = Homo sapiens, Table 3a, 18 hours, XLfit, top/bottom fixed to 100 and 0, hill slope 1
[8] = Homo sapiens, Table 3b, non-linear regression of % of control, averaged IC50 values
[9] = Table 3a, 18 hours, XLfit, top/bottom fixed to 100 and 0, hill slope 1
[10] = Table 3b, non-linear regression of % of control, averaged IC50 values

Compound	IC50 (Aβ42 [2]; [7])	IC50 (Aβ42 [2]; [8])	IC50 (Aβtotal [4]; [7])	IC50 (Aβtotal [4]; [8])	IC50 (Aβ42 [2]; [9])	IC50 (Aβ42 [2]; [10])	IC50 (Aβtotal [4]; [9])	IC50 (Aβtotal [4]; [10])	IC50 (Aβ42 [5])	IC50 (Aβtotal [6])	IC50 (Aβ42 [5]; Homo sapiens)	IC50 (Aβtotal [6]; Homo sapiens)	Aβ42 (% Ctrl) _Mean (Aβ42 [1])	Aβtotal (% Ctrl) _Mean (Aβtotal [3])
COc1cc(Nc2cccc3c2nc(-c2ccc(F)cc2F)n3C)ccc1-n1cnc(C)c1 [Compound 3]	13 nM	13 nM	> 1000 nM	> 3000 nM									46 % Ctrl	87 % Ctrl
Cc1cn(-c2ccc(Nc3cccc4c3nc(-c3ccc(F)cc3)n4C)nc2)cn1 [Compound 5]	31 nM	30 nM	> 3000 nM	> 3000 nM									62 % Ctrl	94 % Ctrl
Cc1cn(-c2ccc(Nc3cccc4c3nc(-c3ccc(F)cc3)n4C)cc2)cn1 [Compound 7]	22 nM	23 nM	> 1000 nM	> 3000 nM									58 % Ctrl	89 % Ctrl
COc1cc(Nc2cccc3oc(CC(C)C)nc23)ccc1-n1cnc(C)c1 [Compound 18]	101 nM	102 nM	> 5000 nM	> 10000 nM									81 % Ctrl	95 % Ctrl
COc1cc(Nc2cccc3c2nc(C2CCCCC2)n3C)ccc1-n1cnc(C)c1 [Compound 38]					104 nM	126 nM	> 3000 nM	> 3000 nM					72 % Ctrl	101 % Ctrl
COc1cc(Nc2cccc3c2nc(N2CC(C)OC(C)C2)n3C)ccc1-n1cnc(C)c1 (stereo not shown) [Compound 44]					135 nM	135 nM	> 5000 nM	> 5000 nM					91 % Ctrl	101 % Ctrl
COc1cc(Nc2cccc3[nH]c(-c4ccccc4C)nc23)ccc1-n1cnc(C)c1 [Compound 45]	15 nM	13 nM	> 1000 nM	> 3000 nM									93 % Ctrl	94 % Ctrl
COc1cc(Nc2cccc3oc(-c4ccc(F)cc4)nc23)ccc1-n1cnc(C)c1 [Compound 80]					1850 nM	1740 nM	> 30000 nM	> 10000 nM					97 % Ctrl	102 % Ctrl
COc1cc(Nc2cccc3oc(Cc4ccc(F)cc4)nc23)ccc1-n1cnc(C)c1 [Compound 82]					147 nM	141 nM	> 3000 nM	> 3000 nM					85 % Ctrl	96 % Ctrl
Cc1cn(-c2ccc(Nc3cccc4c3nc(-c3ccc(F)cc3)n4C)nn2)cn1 [Compound 95]					331 nM	331 nM	> 10000 nM	> 10000 nM					85 % Ctrl	95 % Ctrl
COc1nc(Nc2nc(C)cc3c2nc(-c2ccc(F)cc2)n3C)ccc1-n1cnc(C)c1 [Compound 150]						437 nM		6920 nM	145 nM	4900 nM				
COCCCc1cc(Nc2ccc(-n3cnc(C)n3)c(OC)c2)c2nc(-c3ccc(F)cc3)n(C)c2n1 [Compound 208]		35 nM		> 3000 nM							91 nM	> 10000 nM		

The remaining compounds from weak to strong by IC50 (Aβ42 [2]; [10]), led by results:

IC50 (Aβ42 [2]; [7])	IC50 (Aβ42 [2]; [8])	IC50 (Aβtotal [4]; [7])	IC50 (Aβtotal [4]; [8])	IC50 (Aβ42 [2]; [9])	IC50 (Aβ42 [2]; [10])	IC50 (Aβtotal [4]; [9])	IC50 (Aβtotal [4]; [10])	IC50 (Aβ42 [5])	IC50 (Aβtotal [6])	IC50 (Aβ42 [5]; Homo sapiens)	IC50 (Aβtotal [6]; Homo sapiens)	Compound	Aβ42 (% Ctrl) _Mean (Aβ42 [1])	Aβtotal (% Ctrl) _Mean (Aβtotal [3])
				65 nM	59 nM	> 3000 nM	> 3000 nM					Cc1ncn(-c2ccc(Nc3cccc4c3nc(-c3ccc(F)cc3)n4C(C)C)cc2F)n1.Cl.Cl [Compound 74]	86 % Ctrl	99 % Ctrl
					48 nM		> 3000 nM	29 nM	4270 nM			COc1cccc(-c2nc3c(Nc4ccc(-n5cnc(C)n5)c(OC)c4)nc(C)cc3n2C)c1 [Compound 163]		
				50 nM	37 nM	> 3000 nM	> 3000 nM					Cc1ncn(-c2ccc(Nc3cccc4c3nc(-c3ccc(F)cc3)n4C)cn2)n1 [Compound 70]	64 % Ctrl	99 % Ctrl
				36 nM	33 nM	> 3000 nM	> 3000 nM					COc1cc(Nc2cccc3c2nc(-c2ccc(F)cc2)n3C)ccc1-n1ncnc1C [Compound 91]	68 % Ctrl	94 % Ctrl
				28 nM	28 nM	> 1000 nM	> 3000 nM					COc1cc(Nc2cccc3c2nc(-c2ccc(F)cc2)n3C)ccc1-n1cnc(Br)c1 [Compound 71]	88 % Ctrl	102 % Ctrl
				20 nM	25 nM	> 1000 nM	> 3000 nM					COCCn1c(-c2cccc(OC)c2)nc2c(Nc3ccc(-n4cnc(C)c4)c(OC)c3)cccc21.Cl.Cl [Compound 54]	71 % Ctrl	96 % Ctrl
				31 nM	24 nM	> 1000 nM	> 3000 nM					COc1cc(Nc2cccc3c2nc(-c2cccc(Cl)c2)n3C)ccc1-n1ncnc1C [Compound 96]	62 % Ctrl	88 % Ctrl
				10 nM	10 nM	> 1000 nM	> 3000 nM					COc1cc(-c2nc3c(Nc4ccc(-n5cnc(C)n5)c(OC)c4)cccc3n2C)ccc1Cl [Compound 85]	71 % Ctrl	93 % Ctrl
					5 nM		> 3000 nM	11 nM	4900 nM			COc1nc(Nc2cc(F)cc3c2nc(-c2ccccc2Cl)n3C)ccc1-n1cnc(C)c1 [Compound 151]		
